The source of these data is patent publication US7968572B2, “Nitrogen-containing heterocyclic compound and pharmaceutical application thereof” (Ono Pharmaceuticals Co., Ltd., priority 2005, dated 2011).

Molecules are shown by their SMILES.

The target of data set [1] is T1, recombinant human p38α MAP kinase (Homo sapiens, UniProt Q16539).
T1 construct: purchased Upstate Biotechnology #14-251
The data set can be described thus: Study on p38α MAP kinase inhibitory activity (ATF2 phosphorylation, Alpha Screen). It counts as biochemical. Particulars: biotinylated ATF2 substrate, 30° C. for 30 minutes. On the procedure: Study on p38α MAP Kinase Inhibitory Activity
Using activating transcription factor-2 (hereinafter abbreviated to ATF2) which is a substrate for p38α MAP kinase, the inhibitory action of the compounds of the present invention was investigated on the phosphorylation by a recombinant human p38α MAP kinase.
A kinase buffer (25 mM Tris-HCl (pH 7.5), 5 mM β-glycerophosphate, 2 mM dithiothreitol, 0.1 mM Na3VO4, 10 mM MgCl2) containing a recombinant human p38α MAP kinase (Upstate Biotechnology #14-251) was added to a 384-well plate (5 μL) (6.25 ng protein/well) for fluorescence measurement. After addition of a kinase buffer (5 μL) containing the compound of the present invention, the resulting mixture was incubated at room temperature for 20 minutes. A substrate mixture (5 μL) of biotinylated ATF2 of 5 μg/mL (Upstate Biotechnology #14-432), adenosine triphosphate (90 μmol/L) (Sigma #FL-AAS) and anti-phosphorylated ATF2 antibody (20-fold dilution) (Cell Signaling Technology #9221L) prepared separately was added thereto, and enzyme reaction was carried out at 30° C. for 30 minutes. After the reaction, Hepes buffer (5 μL) containing 0.25% BSA and 100 mM EDTA was added to stop the enzyme reaction. The amount of a complex of the phosphorylated ATF2 and anti-phosphorylated ATF2 antibody produced by the reaction was measured using an Alpha Screen™ Rabbit Detection kit (Packard #6760607).
The p38α MAP kinase inhibitory activity, which is the effect of the compound of the present invention, was calculated as an inhibition rate (%) according to the following equation: Inhibition rate (%)={(AC−AX)/(AC−AB)}×100
wherein AB is a measured value without addition of the enzyme;
AC is a measured value with addition of the enzyme in the absence of a test compound; and
AX is a measured value with addition of the enzyme in the presence of a test compound.
(§1) Inhibition rate of compounds with each concentration was calculated, and a value indicating 50% inhibition (IC50) was determined from the inhibition curve.

The test system of data set [2] is TNF-α production stimulated by lipopolysaccharide (LPS) in THP-1. The data set can be described thus: Inhibitory activity against TNF-α production using human cell lines (LPS-stimulated THP-1). It counts as cell-based. Particulars: 1.5 h, THP-1 cells, LPS stimulation, 90 minutes at 37° C., TNF-α by ELISA. On the procedure: Inhibitory Activity against TNF-α Production using Human Cell Lines
Using THP-1 which is a human monocytic cell line, the inhibitory effect of the compound of the present invention against TNF-α production stimulated by lipopolysaccharide (LPS) was studied.
Each 50 μL of lipopolysaccharide (LPS; 055:B5, Difco) prepared to a concentration of 40 ng/mL using RPMI-1640 medium containing 10% fetal calf serum (hereinafter abbreviated to RPMI-1640) and RPMI-1640 containing the compound of the present invention was added to a 96-well plate for cell culture. 100 μL of the cell suspension of THP-1 (Dainippon Pharmaceutical Co., Ltd, #06-202) prepared to a cell density of 2×10^6 cells/mL using RPMI-1640 was added and cultured for 90 minutes at 37° C. in an incubator (5% CO2, 95% air). After completion of the reaction, the culture medium supernatant was recovered and the amount of produced TNF-α was measured using an ELISA kit (Invitrogen, #850090192).
The inhibitory activity against TNF-α production, which is the effect of the compound of the present invention, was calculated as an inhibition rate (%) by the following equation: Inhibition rate (%)={(AC−AX)/(AC−AB)}×100
wherein AB is a measured value without LPS induction;
AC is a measured value with LPS induction in the absence of a test compound; and
AX is a measured value with LPS induction in the presence of a test compound.
as §1
(In an ELISA, binding on a coated surface is turned into a signal by an enzyme label.)

In data set [3] the test system is TNF-α production induced by lipopolysaccharide (LPS) in rats. The data set can be described thus: Rat cytokine-production model. It counts as in vivo. Conditions: male SD rat, oral 0.3 mg/kg, LPS 10 μg/kg intravenously after 8 hours, plasma TNF-α ninety minutes after LPS; read-out: Inhibition rate (%) (Dose of compound: 0.3 mg/kg). On the procedure: Rat Cytokine-Production Model
The in vivo effect of the compound of the present invention was studied on TNF-α production induced by lipopolysaccharide (LPS) in rats.
A vehicle containing the compound of the present invention was orally administered to male SD rat (Charles River Japan, Inc.), and after 8 hours, lipopolysaccharide (LPS, 055:B5, Difco) was intravenously administered at the dose of 10 μg/kg (5 animals/group). Only a vehicle was orally administered to a control group (5 animals). Ninety minutes after the LPS treatment, heparinized blood collection was performed via the abdominal vena cava under anesthesia with ether, and blood plasma was obtained by centrifugation (12,000 rpm, 3 minutes, 4° C.). The obtained blood plasma sample was stored at −80° C. until it was used. TNF-α in the blood plasma was measured using an ELISA kit from R&D System (#RTA00).
The inhibitory activity of the compound of the present invention against TNF-α production was calculated as an inhibition rate (%) according to the following equation: Inhibition rate (%)={(AC−AX)/AC}×100
wherein AC is a measured value in case where no test compound was administered under LPS induction, and
AX is a measured value in case where a test compound was administered under LPS induction.

Data set [4] in a line: Evaluation of artificial lipid membrane binding using a Biacore S51 system. As to the method: Evaluation of Artificial Lipid Membrane Binding using a Biacore S51 (Registered Trademark) System
Using an aspirator, 10 mM of 1,2-dioleoyl-sn-glycero-3-phosphate monosodium salt (hereinafter abbreviated to DOPA) chloroform solution was evaporated to be dryness, and 0.6 mL of PBS/5% dimethyl sulfoxide (hereinafter abbreviated to DMSO) was added thereto. After carrying out thorough suspension by vortex, freezing and thawing were repeated for 5 times. Liposomes were prepared using a liposome preparation device (manufactured by Avestin Inc.) and two syringes and diluted to be 0.5 mM with PBS/5% DMSO just before the immobilization.
Each compound having a final concentration in PBS/5% DMSO of 50 μM was prepared by adding 38 μL of 1× PBS to 2 μL of 10 mM DMSO solution and further adding 360 μL of 1× PBS/5% DMSO and measured.
All of the following analyses were carried out using the Biacore S51 (registered trademark) system, and the measuring conditions were set up by Biacore S51 Control Software.
The measuring temperature was set to be 37° C., and PBS/5% DMSO (pH 7.4 or pH 6.0) was used as the buffer. Series S Sensor Chip L1 was used as the sensor chip. DOPA was immobilized on one of the measuring spots on the sensor surface, and the central spot was used as the reference.
Immobilization of the liposomes was carried out for about 3 minutes at a flow rate of 10 μL/minute, and then each compound was added thereto at a flow rate of 30 μL/minute to measure the interaction. The measuring conditions are as shown in the following.
Assay buffer: PBS/5% DMSO (pH 7.4 or pH 6.0)
Measuring temperature: 37° C.
Sensor chip: Series S Sensor Chip L1
Flow rate: 10 μL/minute at the time of liposome immobilization, 30 μL/minute at the time of interaction measurement
Regeneration: 20 mM CHAPS (3-[(3-cholamidopropyl)dimethylammonio]-1-propanesulfonate), an isopropanol/50 mM aqueous solution of sodium hydroxide=40/60 (volume ratio) mixed solution (60 seconds)
The data treatment was carried out in accordance with the method of Abdiche et al. (Analytical Biochemistry, 328, 233-243 (2004)) using Biacore S51 Evaluation Software.
After correcting infinitesimal error of the concentration of DMSO contained in the sample solution, the value of binding response (RU) obtained by subtracting the value of reference was divided by the sample molecular weight. Additionally, since the thus obtained value is proportional to the capturing amount of liposome, it was divided by the capturing amount at the time of the cycling and multiplied by 10^6 to be used as the correction value (correction value=1000000×RU (compound to be tested)/molecular weight (compound to be tested) RU (liposome)).
By adding propranolol, amiodarone, desipramine, imipramine and procaine as controls, it was confirmed that variation of the binding response is within about 10 to 15%.
Compounds having a binding response value after correction of 100 or more were judged positive.
On the technique in general: SPR reads the build-up and loss of mass on a sensor chip optically.

Data set [5] deals with Chinese hamster lung cells (CHL/IU). The data set can be described thus: Phospholipidosis detection system using a fluorescence labeling phospholipid analog (NBD-PE). It counts as cell-based. As to the method:
Study by a Phospholipidosis Detection System using a Fluorescence Labeling Phospholipid Analog Cell suspension (7×10^4 cells/ml) of Chinese hamster lung cells (CHL/IU) prepared using MEM (minimum essential medium) was added to a 96 well plate (96 well clear bottom plate) by 100 μL/necessary number of wells (2 wells for 1 dosage) and cultured for about 24 hours. After the culturing and subsequent removal of the supernatants on the 96 well plate, the compounds having respective concentrations prepared by dissolving or suspending in MEM medium containing 25 μmol/L of nitrobenzoxazole dipalmitoyl phosphatidyl ethanolamine (NBD-PE) (hereinafter abbreviated to NBD-PE medium) were added thereto by 100 μL/ well and treated for about 24 hours. Treating concentration of each compound was set to be 6.25, 12.5, 25, 50 or 100 μmol/L. […] In this connection, 5 wells of an untreated control (MEM medium alone) or an NBD-PE control (prepared by adding 1/100 volume of DMSO to the NBD-PE medium) were arranged for each compound and cultured in the same manner. After completion of the culturing and subsequent two times of washing with 100 μL/well of phosphate buffered saline (hereinafter abbreviated to PBS) (−), 100 μL of the MEM medium was added to all of the treated wells including two empty wells for the WST-1 background control and cultured for about 0.5 hour. Fluorescence intensity of each well was measured using a microplate reader (manufactured by Molecular Devices, SPECTRA max M2; excitation wavelength 485 nm/fluorescence wavelength 535 nm). Using average value of 2 wells for each dosage, the phospholipid increasing ratio (%) based on NBD-PE control was calculated using the following formula. Phospholipid accumulation increasing ratio (%)=100×(fluorescence intensity of substance to be tested−fluorescence intensity of untreated control)/(fluorescence intensity of NBD-PE control−fluorescence intensity of untreated control) (iii) Cytotoxicity Test The Pre value was calculated by measuring the 96 well plate which was measured in the measurement of phospholipid accumulation, using the microplate reader (manufactured by Molecular Devices, SPECTRA max M2) at a dominant wavelength of 450 nm and a correction wavelength of 690 nm. Premix WST-1 was added to the pre-measured 96 well plate by 5 μL/well. After 2 to 4 hours of culture, the Aft value was calculated by measuring in the same manner as in the Pre measurement. The background control value was subtracted from each of the measured values. Using the value obtained by subtracting the Pre value from the Aft value, the cell growth ratio (%) was calculated using the following formula.

T1 sequence (Q16539 whole entry): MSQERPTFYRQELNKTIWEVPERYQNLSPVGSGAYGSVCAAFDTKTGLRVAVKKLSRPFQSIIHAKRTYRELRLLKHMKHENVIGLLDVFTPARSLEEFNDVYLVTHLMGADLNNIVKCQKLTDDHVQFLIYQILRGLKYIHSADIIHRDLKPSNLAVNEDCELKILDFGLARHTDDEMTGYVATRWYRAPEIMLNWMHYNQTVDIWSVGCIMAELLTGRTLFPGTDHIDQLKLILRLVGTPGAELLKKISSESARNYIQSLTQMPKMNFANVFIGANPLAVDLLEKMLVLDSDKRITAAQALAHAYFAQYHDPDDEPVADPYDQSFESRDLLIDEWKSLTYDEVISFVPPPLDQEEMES

With `Cc1cc(Cl)cc(C)c1-n1cc(-c2nc(C(C)(CO)CO)oc2-c2ccc(F)cc2F)ccc1=O` [Compound 6a, 1-(4-chloro-2,6-dimethylphenyl)-5-{5-(2,4-difluorophenyl)-2-[2-hydroxy-1-(hydroxymethyl)-1-methylethyl]-1,3-oxazol-4-yl}-2(1H)-pyridinone], the IC50 in data set [1] turned out to be 12 nM; in data set [2], 2.6 nM.
In the case of `CC(C)(O)c1nc(-c2ccc(F)cc2F)c(-c2ccc(=O)n(-c3c(F)cccc3F)c2)o1` [Compound 89 (b), 1-(2,6-difluorophenyl)-5-[4-(2,4-difluorophenyl)-2-(1-hydroxy-1-methylethyl)-1,3-oxazol-5-yl]-2(1H)-pyridinone], the IC50 stood at 1.7 nM in data set [1] and 0.7 nM in data set [2]. Also, the inhibition at 0.3 mg/kg in data set [3] was found to be 82%. Moreover, the “Binding Level (RU)” value in data set [4] (compound 50 μM, DOPA liposomes on Sensor Chip L1, 37° C., PBS/5% DMSO (pH 7.4 or pH 6.0)) is 15.5 RU. Further, the Judgment entry in data set [4] (phospholipidosis inducing activity judged from artificial lipid membrane binding) is reported as “Negative”.
On to `C[C@](O)(CO)c1nc(-c2ccc(F)cc2F)c(-c2ccc(=O)n(-c3c(F)cccc3F)c2)o1` [Example 210, 1-(2,6-difluorophenyl)-5-{4-(2,4-difluorophenyl)-2-[(1S)-1,2-dihydroxy-1-methylethyl]-1,3-oxazol-5-yl}-2(1H)-pyridinone], for which the results for the IC50 in data set [1] and in data set [2] were 5.8 nM and 0.7 nM, respectively. Further, in data set [3], the inhibition at 0.3 mg/kg amounted to 49%. In data set [5] (compound 100 uM, about 24 hours with NBD-PE), the “Pospholipid accumulation increasing ratio (% of 30 uM amiodarone) (Dose of compound: 100 uM)” value was 8 % of 30 uM amiodarone. Also, in data set [5] (phospholipidosis inducing activity, NBD-PE), the Judgment result is given as “Negative”.

By IC50 is commonly meant the concentration that inhibits the measured activity by half.
